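These data come from cells grown in 96-well plates and exposed to compound for 48 hours at five concentrations. Here, GI50 denotes the concentration required for 50% inhibition of growth.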 Calls of active or inactive are those of the source. Cut-off read from the data, not from the text of the source: active = GI50 up to about 1.1 µM and inactive = higher.
Experiments:
Assay in all cases: growth of human tumour cells (NCI), 48 h
M14 = tested on: M14
A549 = tested on: A549
SN12C = tested on: SN12C
HCT-15 = tested on: HCT-15
SNB-19 = tested on: SNB-19
SF-539 = tested on: SF-539
IGROV-1 = tested on: IGROV-1
UACC-62 = tested on: UACC-62
UO-31 = tested on: UO-31
RPMI-8226 = tested on: RPMI-8226
SK-OV-3 = tested on: SK-OV-3
OVCAR-5 = tested on: OVCAR-5
NCI-H226 = tested on: NCI-H226
NCI-H460 = tested on: NCI-H460
NCI-H522 = tested on: NCI-H522
HOP-62 = tested on: HOP-62
CAKI-1 = tested on: CAKI-1
SNB-75 = tested on: SNB-75

| SMILES | GI50 (M14) | GI50 (A549) | GI50 (SN12C) | GI50 (HCT-15) [µM] | GI50 (SNB-19) | GI50 (SF-539) | GI50 (IGROV-1) | GI50 (UACC-62) | GI50 (UO-31) | GI50 (RPMI-8226) | GI50 (SK-OV-3) | GI50 (OVCAR-5) | GI50 (NCI-H226) | GI50 (NCI-H460) | GI50 (NCI-H522) | GI50 (HOP-62) | GI50 (CAKI-1) | GI50 (SNB-75) |
| --- | --- | --- | --- | --- | --- | --- | --- | --- | --- | --- | --- | --- | --- | --- | --- | --- | --- | --- |
| CN/N=C(/Cc1occc(=O)c1O)C(=O)Nc1ccc(C)c(C)c1 | > 100 µM (inactive) | > 100 µM (inactive) | > 100 µM (inactive) | > 100 | > 100 µM (inactive) | > 100 µM (inactive) | > 100 µM (inactive) | > 100 µM (inactive) | > 100 µM (inactive) | > 100 µM (inactive) | > 100 µM (inactive) | > 100 µM (inactive) | > 100 µM (inactive) | > 100 µM (inactive) | > 100 µM (inactive) | > 100 µM (inactive) | > 100 µM (inactive) |  |
| CC1C=CC(O)[C@]2(CO)CC3(CCC12)OCCO3 (stereo not given in full) | > 100 µM (inactive) | > 100 µM (inactive) | > 100 µM (inactive) |  | > 100 µM (inactive) | > 100 µM (inactive) | > 100 µM (inactive) | > 100 µM (inactive) | > 100 µM (inactive) |  | > 100 µM (inactive) | > 100 µM (inactive) | > 100 µM (inactive) | > 100 µM (inactive) | > 100 µM (inactive) | > 100 µM (inactive) | > 100 µM (inactive) | > 100 µM (inactive) |
| Brc1cc2c(cc1Br)CN(c1ccccc1)C2 | > 100 µM (inactive) | > 100 µM (inactive) | > 100 µM (inactive) | 53.8 | > 100 µM (inactive) | > 100 µM (inactive) | > 100 µM (inactive) | > 100 µM (inactive) | > 100 µM (inactive) | > 100 µM (inactive) | > 100 µM (inactive) | > 100 µM (inactive) | > 100 µM (inactive) | > 100 µM (inactive) |  | > 100 µM (inactive) |  | > 100 µM (inactive) |
| COc1ccc(-c2oc3cc(O)c(OC)c(O)c3c(=O)c2OC2OC(CO)C(O)C(O)C2O)cc1 (stereo not given) | > 100 µM (inactive) | > 100 µM (inactive) | > 100 µM (inactive) | > 100 | > 100 µM (inactive) | > 100 µM (inactive) | > 100 µM (inactive) | > 100 µM (inactive) | 82 µM (inactive) | 21.2 µM (inactive) | > 100 µM (inactive) |  |  | 43.3 µM (inactive) |  |  |  | > 100 µM (inactive) |
| CC1=C(C)CC2(CCCCC2=O)[S+]([O-])C1 (stereo not given) | > 100 µM (inactive) | > 100 µM (inactive) | > 100 µM (inactive) | > 100 | > 100 µM (inactive) | > 100 µM (inactive) | > 100 µM (inactive) | > 100 µM (inactive) | > 100 µM (inactive) | > 100 µM (inactive) | > 100 µM (inactive) | > 100 µM (inactive) | > 100 µM (inactive) | > 100 µM (inactive) |  | > 100 µM (inactive) |  | > 100 µM (inactive) |
| C/C(CC(=O)Nc1ccc(NC(=O)/C(C)=N/NS(=O)(=O)c2ccc(C)cc2)cc1)=N\NS(=O)(=O)c1ccc(C)cc1 | > 100 µM (inactive) | > 100 µM (inactive) | > 100 µM (inactive) | > 100 |  | > 100 µM (inactive) | > 100 µM (inactive) | > 100 µM (inactive) | > 100 µM (inactive) | > 100 µM (inactive) | > 100 µM (inactive) | > 100 µM (inactive) | > 100 µM (inactive) | > 100 µM (inactive) |  | > 100 µM (inactive) | > 100 µM (inactive) | > 100 µM (inactive) |
| N=C(N)NS(=O)(=O)c1ccc(NC(=O)c2cccc3c(Nc4ccc(S(N)(=O)=O)cc4)c4ccccc4nc23)cc1 | > 100 µM (inactive) | > 100 µM (inactive) | > 100 µM (inactive) | > 100 | > 100 µM (inactive) | > 100 µM (inactive) | > 100 µM (inactive) | > 100 µM (inactive) | > 100 µM (inactive) | > 100 µM (inactive) | > 100 µM (inactive) | > 100 µM (inactive) |  | > 100 µM (inactive) | > 100 µM (inactive) | > 100 µM (inactive) | > 100 µM (inactive) | > 100 µM (inactive) |
| C[n+]1c2ccccc2c(NC(CCC(N)=O)C(=O)O)c2ccccc21 (stereo not given) | > 100 µM (inactive) | > 100 µM (inactive) | > 100 µM (inactive) | > 100 | > 100 µM (inactive) | > 100 µM (inactive) | > 100 µM (inactive) | > 100 µM (inactive) | > 100 µM (inactive) | 21 µM (inactive) | > 100 µM (inactive) | > 100 µM (inactive) | > 100 µM (inactive) | > 100 µM (inactive) | > 100 µM (inactive) | > 100 µM (inactive) |  | > 100 µM (inactive) |
| COc1cc(/C=C(\C#N)c2ccccc2)cc(OC)c1 | 33.8 µM (inactive) | 28.6 µM (inactive) | 74.6 µM (inactive) | 24 | > 100 µM (inactive) | 41.1 µM (inactive) | 71 µM (inactive) | 32.4 µM (inactive) | 29.6 µM (inactive) | 35.6 µM (inactive) | 48.2 µM (inactive) | 55.1 µM (inactive) | 25.8 µM (inactive) | 42.6 µM (inactive) | 32.4 µM (inactive) | 74.1 µM (inactive) | 51.1 µM (inactive) |  |

From ChEMBL document CHEMBL1201862, “PubChem BioAssay data set” (2004)
